# According to ChEMBL document CHEMBL1144270, “Carbonic anhydrase inhibitors. Interaction of isozymes I, II, IV, V, and IX with carboxylates” (Bioorg Med Chem Lett, 2005):
# Legend:
# [1] = target: Carbonic anhydrase 5A, mitochondrial (Homo sapiens, UniProt P35218); assay: Binding affinity against human cytosolic Carbonic anhydrase V
# [2] = target: Carbonic anhydrase 2 (Homo sapiens, UniProt P00918); assay: Binding affinity against human cytosolic Carbonic anhydrase II
# [3] = target: Carbonic anhydrase 4 (Homo sapiens, UniProt P22748); assay: Binding affinity against human cytosolic Carbonic anhydrase IV
# [4] = target: Carbonic anhydrase 9 (Homo sapiens, UniProt Q16790); assay: Binding affinity against human cytosolic Carbonic anhydrase IX
# [5] = target: Carbonic anhydrase 1 (Homo sapiens, UniProt P00915); assay: Binding affinity against human cytosolic Carbonic anhydrase I (A = activator)
# Chain of Carbonic anhydrase 1 (P00915 whole entry): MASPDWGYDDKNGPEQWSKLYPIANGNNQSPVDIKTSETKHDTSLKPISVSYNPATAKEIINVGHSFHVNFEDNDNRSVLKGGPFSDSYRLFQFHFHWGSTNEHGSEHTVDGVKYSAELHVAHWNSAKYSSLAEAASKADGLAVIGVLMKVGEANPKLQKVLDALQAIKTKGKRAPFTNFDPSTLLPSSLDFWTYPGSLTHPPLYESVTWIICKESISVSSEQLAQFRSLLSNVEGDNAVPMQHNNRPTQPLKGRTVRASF
# Chain of Carbonic anhydrase 4 (P22748 whole entry): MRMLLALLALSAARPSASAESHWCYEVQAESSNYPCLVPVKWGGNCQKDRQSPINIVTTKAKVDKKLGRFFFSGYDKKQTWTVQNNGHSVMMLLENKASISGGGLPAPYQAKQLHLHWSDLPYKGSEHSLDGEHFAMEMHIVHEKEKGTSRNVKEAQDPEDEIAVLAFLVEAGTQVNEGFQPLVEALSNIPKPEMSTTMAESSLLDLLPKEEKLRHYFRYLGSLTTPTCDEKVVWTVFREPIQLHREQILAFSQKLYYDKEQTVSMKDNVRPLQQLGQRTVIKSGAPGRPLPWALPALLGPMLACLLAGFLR
# Chain of Carbonic anhydrase 5A, mitochondrial (P35218 whole entry): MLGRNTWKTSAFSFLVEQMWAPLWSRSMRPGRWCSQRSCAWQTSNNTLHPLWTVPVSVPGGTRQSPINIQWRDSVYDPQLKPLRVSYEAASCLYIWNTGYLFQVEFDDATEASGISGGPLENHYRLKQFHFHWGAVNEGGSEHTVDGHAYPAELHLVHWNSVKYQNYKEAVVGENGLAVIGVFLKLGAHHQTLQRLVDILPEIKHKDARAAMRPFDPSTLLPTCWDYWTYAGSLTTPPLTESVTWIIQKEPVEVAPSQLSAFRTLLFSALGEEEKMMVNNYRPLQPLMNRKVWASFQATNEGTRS
Structure (SMILES),Ki [1] [µM],Ki [2] [µM],Ki [3] [µM],Ki [4] [µM],Ki [5]
O=C(O)c1c(F)c(F)cc(F)c1F,1620,6,74.5,770,–
O=C([O-])CC(=O)[O-].[Na+].[Na+] [DISODIUM MALONATE],6000,1620,2.8,1270,Activator
O=C(O)C[C@H](O)C(=O)O [E350],2490,1870,53.7,7420,Activator
CC(=O)C(=O)[O-].[Na+] [PYRUVATE SODIUM],5500,2110,14.5,1120,Activator
CC(=O)[O-].[Na+] [SODIUM ACETATE],25900,130,550,> 150000,Activator
O=C([O-])c1ccccc1.[Na+] [SODIUM BENZOATE],7010,30,74.7,> 150000,Activator
O=C([O-])O.[Na+] [SODIUM BICARBONATE],82000,–,–,–,–
O=C([O-])CC(O)(CC(=O)[O-])C(=O)[O-].[Na+].[Na+].[Na+] [SODIUM CITRATE],1670,2160,0.099,4930,Activator
O=C[O-].[Na+] [SODIUM FORMATE],9970,–,–,–,Activator
CC(O)C(=O)[O-].[Na+] (configuration not stated) [SODIUM LACTATE],3370,3220,1530,> 150000,Activator
O=C([O-])C(=O)[O-].[Na+].[Na+] [SODIUM OXALATE],2230,990,0.099,3280,Activator
